The results in this text go back to patent US6930104B2, “Heterocyclic derivatives” (Takeda Chemical Industries, Ltd., priority 2001, dated 2005).

The test system of data set [1] is sAPP secretion in PC12h cells. In words: Stimulatory effects on sAPP secretion (Western blotting of culture supernatant). Type of data set: cell-based, rat. The following applies: 5 hours after addition; for increase in sAPP production compared to the control group: averaged from triplicate wells. The protocol: (§1) PC12h cells, a subspecies of rat-derived pheochromocytoma PC12 cells, were provided by the late Professor Hiroshi Hatanaka (Osaka University, Japan). Dulbecco's modified Eagle's medium (DMEM), phosphate buffered saline (PBS), HEPES (N-2-hydroxyethylpiperazine-N′-2-ethanesulfonic acid) buffer (pH 7.4), horse serum (HS) and a penicillin (5000 U/ml)/streptomycin (5 mg/ml) mixture were purchased from Gibco BRL. Fetal calf serum (FCS) was purchased from Bioscience PTY. Transferrin, insulin and progesterone were purchased from Sigma. The flasks used for culture were manufactured by Falcon, and the collagen-coated 96-well and 6-well multiwell plates used for assay were manufactured by Iwaki Glass Co., Ltd. (Japan). An LDH assay kit (LDH cytotoxic test Wako) and an anti-βAPP antibody 22C11 were purchased from Wako Pure Chemical Industries, Ltd. (Japan) and Chemicon, respectively. All other chemicals used were commercially available and of reagent grade.
PC12h cells were grown in DMEM culture medium supplemented with 10% FCS, 5% HS and penicillin/streptomycin, and then released by pipetting. The cells were seeded in collagen-coated 6-well plates at a confluency of 50% to 70% and allowed to stand for 1 day. On the following day, the wells were washed once with 10 mM HEPES/DMEM (1 ml) and then filled with 10 mM HEPES/DMEM culture medium (0.5 ml), followed by addition of Example No. 5 or 32. After 5 hours, the culture supernatant was collected from each well. Trichloroacetic acid (final concentration: 15%) was added to the culture supernatant to precipitate proteins, which were then concentrated. After addition of SDS-PAGE sample buffer (Daiichi Pure Chemicals Co., Ltd., Japan), each sample was boiled for 5 minutes, subjected to SDS-PAGE (10/20% gel, ATTO) and then transferred to a PVDF membrane (Bio-Rad Laboratories) at 2 mA/cm^2 for 60 minutes. […] An ECL Plus (Amersham) was used for detection and the signals were digitized by an LAS-1000 plus (Fuji film, Japan), followed by quantification with NIH-image software.
For orientation: Immunoblotting shows a protein as a band on a membrane.

In another data set the test system is PC12h cells. The data set can be described thus: Inhibitory effects on glutamate-induced cell death (LDH activity of living cells). Type of data set: cell-based, rat. Particulars: concentration of 1 μM, 72 hours. Here is the method:
as §1
PC12h cells were seeded in 96-well plates at a density of 2×10^4 cells/cm^2. […] After 72 hours, living cells were counted. Cell counts were determined as follows: after removal of the culture medium, living cells were solubilized in 0.1% Tween 20-containing PBS and assayed for LDH activity. The results were expressed as % of control, whose LDH activity was set to 100.

As for `COc1ccc(C(=O)N2c3ccccc3C(n3c4ccccc4c4ccccc43)CC2C)cc1OC` (stereo not drawn) [Example 32, 2,4-cis-4-(9H-9-Carbazolyl)-1-(3,4-dimethoxybenzoyl)-2-methyl-1,2,3,4-tetrahydroquinoline], the “increase in sAPP production compared to the control group” value in data set [1] (1 nM concentration) is “approximately 2.2 fold”.

As to `COc1ccc(C(=O)N2c3ccccc3C(N3CCCc4ccccc43)CC2C)cc1OC` (single isomer, unassigned; (-)) [Example 5, (−)-2,4-cis-1-(3,4-Dimethoxybenzoyl)-2-methyl-4-(1,2,3,4-tetrahydroquinolin-1-yl)-1,2,3,4-tetrahydroquinoline], in data set [1] (10 nM concentration), the “increase in sAPP production compared to the control group” value was “approximately 2.0 fold”. The “sAPP level in the culture medium as compared to the control group” value in data set [1] (Western blotting with anti-βAPP antibody 22C11) is recorded as “concentration-dependent increase”. Further, in the data set with PC12h cells, the “inhibition of cell death induced by addition of 1 mM glutamic acid” value was “completely inhibited”.

Turning to `COc1ccc(C(=O)N2c3ccccc3C(N3CCc4ccccc4C3)CC2C)cc1OC` (centres unmarked) [Example 73, 1-(3,4-Dimethoxybenzoyl)-2-methyl-4-(1,2,3,4-tetrahydroisoquinolin-2-yl)-1,2,3,4-tetrahydroquinoline], the melting point (usually the temperature, or range, at which the solid turns liquid) lay in the range of 128 to 129 °C.

In turn, `COc1ccc(C(=O)N2c3ccccc3C(n3c4ccccc4c4ccccc43)CC2CCCNC(=O)c2ccccc2)cc1OC` (stereo not drawn) [Example 124, N-[3-[2,4-cis-4-(9H-9-Carbazolyl)-1-(3,4-dimethoxybenzoyl)-1,2,3,4-tetrahydroquinolin-2-yl]propyl]-benzamide] gave a melting point of 236 to 237 °C.

In the case of `CCCC1CC(n2c3ccccc3c3ccccc32)c2ccccc2N1C(=O)c1ccc(OCC)c(OCC)c1` (stereo not drawn) (hydrate or solvate) [Example 147, 2,4-cis-4-(9H-9-Carbazolyl)-1-(3,4-diethoxybenzoyl)-2-propyl-1,2,3,4-tetrahydroquinoline], the melting point turned out to be 220 °C.

`CCCCC1CC(n2c3ccccc3c3ccccc32)c2ccccc2N1C(=O)c1ccc(OC)c(OC)c1` (stereo not drawn) [Example 40, 2,4-cis-2-Butyl-4-(9H-9-carbazolyl)-1-(3,4-dimethoxybenzoyl)-1,2,3,4-tetrahydroquinoline]: the melting point was 213 °C.
